Data set [1] has as its system mice. Description: locomotor activity test (photoresistance actimeters). The note with it: 6, 12.5 or 25 mg/kg ip; 30 min measurement; p > 0.05.
Data set [2] relates to mice. In words: passive avoidance test, SCOP-induced long-term memory impairment. The format is in vivo. The procedure:
(§1) The passive avoidance test in mice is used to assess fear-related learning and memory. The apparatus consists of an acrylic box with two chambers: white (10 × 13 × 15 cm) and black (25 × 20 × 15 cm). During the experiment, the white chamber is illuminated with a bright light (8 W). The black chamber, which is equipped with an electric grid base, is connected to the illuminated chamber.
(§2) A pre-test (training) was carried out before the experiments. Each mouse was placed individually in the illuminated chamber of the device and allowed to explore it within 30 s. The guillotine door separating the two chambers was then opened. The mouse was then allowed to enter the black chamber, where it was immediately treated with an electric shock (0.2 mA) for 2 s. The latency to enter the black chamber was recorded (TL1). During the retention trial, which was performed 24 h after the pre-test, the same mouse was again placed in the lighted chamber of the device. The time required to enter the black chamber was recorded (TL2). In contrast to the pre-test, no foot shock was administered this time. […] The index of latency (IL) was calculated as follows:IL = (TL2 − TL1)/TL1(1)
(§3) After the 30 min delay, the pre-test was performed.

For data set [3], the system named is phosphatidylcholine PC(22:4(7Z, 10Z, 13Z, 16Z)/16:0) level. In words: phosphatidylcholine level in brain samples, pathway analysis (Mass Profiler Professional, KEGG). Type of data set: in vivo, mice. The note with it: for effect on phosphatidylcholine level in brains: LPS model. The procedure: (§4) The liquid chromatograph consisted of a degasser, a binary pump, a column oven, an autosampler and the high-resolution mass detector QTOF-MS/MS with an electrospray ionization source. The chromatographic column Zorbax Eclipse Plus (Agilent Technologies, CA, USA) (150 mm × 2.1 mm, 3.2 um, RP-18) was used to separate the metabolites of the injected matrix in the following gradient of acetonitrile with 0.1% formic acid (solvent B) in the 0.1% aqueous solution of formic acid (solvent A): 0 min—2% B, 2 min—10% B, 6 min—40% B, 35–37 min—95% B and 37.5 min—2% B. The analysis time was set to 43 min, the follow-up time to 5 min, the flow rate to 0.2 mL/min and the injection volume to 10 μL. The detailed settings of the mass spectrometer were as follows: a capillary voltage of 3000 V, a skimmer voltage of 65 V, a mass range of 100–1200 m/z, a collision energy of 10 and 20 V, a nebulizer pressure of 30 psig, a gas flow rate of 12 L/min and gas and sheath gas temperatures of 250 and 325 °C. The Mass Hunter Workstation (version B.10.00) from Agilent Technologies was used to record and process the data obtained. […] For each of the concentrations, the average values of the content of the tested substance in the respective organ were calculated. The standard deviation (SD) values were calculated in each case. The recorded mass chromatograms for the brain samples (injection with saline: n = 2, injection with LPS: n = 3 and 25 mg/kg b.w. with LPS injection: n = 3) were analyzed with the Mass Profiler Professional Program 15.1 from Agilent Technologies (Santa Clara, CA, USA) with a built-in pathways analysis module that uses the Kyoto Encyclopedia of Genes and Genomes (KEGG) database to detect the effects of the injected substance on molecular mechanisms. First, the raw data from the recorded chromatograms were exported in csv format and analyzed in the program. […] Of the 517 entities analyzed, eleven differentiating m/z signals were detected in the samples, with p < 0.05 and a fold change of 2 settings. One of the differentiating signals was phosphatydylcholine, whose behavior in the tested samples was analyzed with the pathways module.

Data set [4] has as its system AChE. As to conditions: previous studies; cited from earlier work.
Data set [5] has as its system mice. In words: passive avoidance test, LPS-induced long-term memory impairment. Type of data set: in vivo. As to conditions: LPS 2.5 mg/kg ip. The procedure:
as §1, §2, §3

Data set [6] can be described thus: HPLC-ESI-QTOF-MS/MS determination of astragaloside IV in organs post mortem. As to conditions: for content in kidney (Av) / content in liver (Av) / content in spleen (Av) / content in brain (Av): 1 h after injection, n = 3. The format is in vivo, mice. The procedure:
They were then homogenized in an Eppendorff plastic vial kept in ice. The homogenates of the organs were vortexed with 200 µL of 50% ethanol for 10 min. The Eppendorff vials were centrifuged at 3500 rpm for 5 min and the supernatant was filtered through a nylon syringe filter with a diameter of 0.22 µm into the autosampler vials with the glass inserts. […] Due to the small size and mass of brains, AIV was quantified in these organs after addition of the reference compound (Sigma Aldrich, St. Louis, MO, USA) to the samples. […] The peak areas of astragaloside IV in the brains were compared with the blank solution of the standard compound. The levels of astragaloside IV in the other organs were measured without the presence of the reference compound.
as §4

Details of data set [7]: method as in Zhang et al. [60]. As to conditions: ref Zhang et al. [60]; cited from earlier work.
The mark [8] stands for this setting: AIV smaller doses (6, 12.5 mg/kg ip), p > 0.05.
Where [9] appears, read: AIV 6, 12.5 or 25 mg/kg ip, p > 0.05 vs LPS.

As for `CC(C)(O)[C@@H]1CC[C@](C)([C@H]2[C@@H](O)C[C@@]3(C)[C@@H]4C[C@H](O[C@@H]5O[C@H](CO)[C@@H](O)[C@H](O)[C@H]5O)[C@H]5C(C)(C)[C@@H](O[C@@H]6OC[C@@H](O)[C@H](O)[C@H]6O)CC[C@@]56C[C@@]46CC[C@]23C)O1` [AIV, astragaloside IV], in data set [1], the “effect on locomotor activity” value is on record as “no effect”. Also, in data set [2] (AIV 25 mg/kg ip before SCOP 1 mg/kg ip, p < 0.001 vs SCOP), the “attenuation of SCOP-impaired acquisition of long-term memory” value is on record as “attenuated”. In data set [2] (AIV 25 mg/kg ip, SCOP 1 mg/kg ip, p < 0.01 vs SCOP), the “attenuation of SCOP-impaired consolidation of long-term memory” value was “attenuated”. For the same molecule, in data set [2] (setting [8]), the “attenuation of SCOP-impaired acquisition of long-term memory” value is on record as “ineffective” and the “attenuation of SCOP-impaired consolidation of long-term memory” value is recorded as “ineffective”. The “effect of AIV itself on acquisition of long-term memory” value in data set [2] (all doses tested (6, 12.5, 25 mg/kg ip), no SCOP, p < 0.001 vs control) is “improved acquisition”. Further, in data set [3] (astragaloside IV 25 mg/kg b.w. ip), the “effect on phosphatidylcholine level in brains” value was “restored the level of the compound to that of saline administration”. For the same molecule, the “AChE inhibition” value in data set [4] was “inhibitor of AChE”. Further, in data set [5] (setting [9]), the “attenuation of LPS-impaired acquisition of long-term memory” value is “did not attenuate” and the “attenuation of LPS-impaired consolidation of long-term memory” value is “did not attenuate”. For the same molecule, in data set [6] (6 mg/kg ip), the “content in kidney (Av)” value came out at 0.0174 mg/Organ, the “content in liver (Av)” value is recorded as 0.00411 mg/Organ and the “content in spleen (Av)” value is 0.03766 mg/Organ. Moreover, in data set [6] (12.5 mg/kg ip), the “content in brain (Av)” value is 0.00012 mg/Organ, the “content in kidney (Av)” value was found to be 0.03882 mg/Organ, the “content in liver (Av)” value is 0.01084 mg/Organ and the “content in spleen (Av)” value is listed as 0.04919 mg/Organ. Also, in data set [6] (25 mg/kg ip), the “content in brain (Av)” value turned out to be 0.00023 mg/Organ, the “content in kidney (Av)” value was found to be 0.08892 mg/Organ, the “content in liver (Av)” value came out at 0.02316 mg/Organ and the “content in spleen (Av)” value came to 0.06844 mg/Organ. In data set [6] (6, 12.5, 25 mg/kg ip), the “dose dependence of concentration in soft organ tissues” value is “dose-dependent”. Moreover, the “rank order of content in soft organs” value in data set [6] (ip, mice, post mortem) is “highest content of the saponin was found in the kidneys, then in the spleen, liver and brain”. For the same molecule, the “route of excretion” value in data set [7] is listed as “excreted slowly via hepatic clearance”.
`CN1[C@@H]2C[C@@H](OC(=O)[C@H](CO)c3ccccc3)C[C@H]1[C@@H]1O[C@@H]12` [SCOP, Scopolamine, reference compound]: in data set [2] (SCOP 1 mg/kg ip, p < 0.001), the “effect on memory acquisition and consolidation vs control mice” value is “impaired both memory acquisition and consolidation”.
On to lipopolysaccharide [LPS], for which, in data set [3], the “effect on phosphatidylcholine level in brains” value is on record as “decrease the level of phosphatidylcholines”. Besides, in data set [3] (brain samples, LPS group), the “Kennedy Pathway log2 (phosphatidylcholine level)” value was 0 and the “One-Carbon Metabolism log2 (phosphatidylcholine level)” value amounted to 0. In data set [5] (p < 0.001), the “effect on memory acquisition and consolidation vs control mice” value is “impaired both memory acquisition and consolidation”.

These data come from paper PMC11012721 (International Journal of Molecular Sciences, 2024).
